# Paper PMC10724200, “A peptide derived from interleukin-10 exhibits potential anticancer activity and can facilitate cell targeting of gold nanoparticles loaded with anticancer therapeutics” (Communications Chemistry, 2023)
# Ends that are not written are not given here.
# How the values were obtained:
# [1] = target: T1, recombinant receptor human IL-10Ra protein (Homo sapiens, UniProt Q13651); experiment: Biolayer interferometry kinetic assay, binding to IL-10Ra; conditions: read-out: ka (association constant)
# T1 sequence (Q13651 22-578): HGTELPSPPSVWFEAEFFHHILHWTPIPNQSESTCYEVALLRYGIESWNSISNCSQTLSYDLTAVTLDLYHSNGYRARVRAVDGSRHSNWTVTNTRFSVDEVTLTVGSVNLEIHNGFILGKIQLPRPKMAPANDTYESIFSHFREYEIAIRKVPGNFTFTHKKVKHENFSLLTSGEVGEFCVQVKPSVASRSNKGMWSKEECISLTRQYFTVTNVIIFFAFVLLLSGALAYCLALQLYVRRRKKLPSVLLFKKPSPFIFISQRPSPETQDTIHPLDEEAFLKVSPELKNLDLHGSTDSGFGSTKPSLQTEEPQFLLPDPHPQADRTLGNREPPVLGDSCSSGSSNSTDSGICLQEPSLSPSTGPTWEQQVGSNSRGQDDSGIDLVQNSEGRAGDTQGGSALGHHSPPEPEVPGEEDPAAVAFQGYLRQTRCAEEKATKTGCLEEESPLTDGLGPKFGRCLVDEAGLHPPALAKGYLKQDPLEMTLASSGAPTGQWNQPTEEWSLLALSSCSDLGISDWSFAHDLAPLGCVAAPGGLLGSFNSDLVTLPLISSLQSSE
# Procedure: (§1) Biolayer interferometry (BLI) was applied to analyze peptide–receptor protein interactions. BLI was performed with a ForteBio Octet RED96e System (Sartorius AG, Göttingen, Germany) by using high-precision streptavidin and biosensors. The biosensors were hydrated in a plate for 15 min and then loaded with 10 μg/mL recombinant receptor human IL-10Ra protein and incubated for 150 s. […] After the association step, the biosensor was shifted to the dissociation buffer, phosphate-buffered saline (PBS) with 0.05% Tween20, for dissociation. Dissociation was recorded until equilibrium was reached (120 s).
# To measure the binding ability of the designed and negative control peptides (NM25, NK20, NK20a, and control scramble peptide CG20) to the receptor IL-10Ra in vitro, BLI experiments were performed. […] When binding with IL-10Ra, the association constant (ka) of NK20 and NK20a was 1.02 × 10^4 (1/Ms) and 8.14 × 10^3 (1/Ms), respectively. The ka values of the refined peptides were approximately 12-fold higher than that of NM25. […] The equilibrium dissociation constant (KD) of NK20a interactions with IL-1R1was approximately 2000 times greater than that with IL-10Ra, and the calculated dissociation constant of NK20a interactions with IL-1R1 was to be 5000 times greater than that with IL-10Ra interactions (Table 2). […] As a result, NK20a was used for further investigations in this study.
# Fig. 3 BLI kinetic assays of the designed peptides binding to the receptor IL-10Ra. Wavelength shift curves show the association and dissociation of the designed peptides (a) NM25, (b) NK20, (c) NK20a, (d) CG20 binding to the IL-10 receptor, and (e) NK20a binding to a control receptor IL-1R1 at various concentrations. Dissociation was recorded at 120 s after the binding started (black dotted line).
# IL-1R1 = target: T2, IL-1R1 (Homo sapiens, UniProt P14778); experiment: Biolayer interferometry kinetic assay, binding to control receptor IL-1R1; conditions: read-out: ka (association constant)
# T2 sequence (P14778 18-569): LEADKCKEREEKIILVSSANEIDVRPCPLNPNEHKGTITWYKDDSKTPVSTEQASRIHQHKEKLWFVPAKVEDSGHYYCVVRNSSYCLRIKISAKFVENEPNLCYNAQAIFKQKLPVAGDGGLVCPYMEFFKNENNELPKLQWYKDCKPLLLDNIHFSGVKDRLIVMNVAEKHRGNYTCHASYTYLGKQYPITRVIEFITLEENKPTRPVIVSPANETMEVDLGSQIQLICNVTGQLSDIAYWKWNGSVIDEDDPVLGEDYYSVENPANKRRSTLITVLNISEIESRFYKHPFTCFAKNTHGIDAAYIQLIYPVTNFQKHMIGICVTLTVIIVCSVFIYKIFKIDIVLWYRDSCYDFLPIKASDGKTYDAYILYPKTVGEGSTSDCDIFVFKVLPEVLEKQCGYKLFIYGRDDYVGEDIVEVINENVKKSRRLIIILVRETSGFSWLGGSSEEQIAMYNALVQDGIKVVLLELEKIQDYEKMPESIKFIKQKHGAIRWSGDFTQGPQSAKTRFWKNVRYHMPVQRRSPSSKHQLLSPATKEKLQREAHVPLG
# Procedure: as §1
# To measure the binding ability of the designed and negative control peptides (NM25, NK20, NK20a, and control scramble peptide CG20) to the receptor IL-10Ra in vitro, BLI experiments were performed. […] When binding with IL-10Ra, the association constant (ka) of NK20 and NK20a was 1.02 × 10^4 (1/Ms) and 8.14 × 10^3 (1/Ms), respectively. […] The equilibrium dissociation constant (KD) of NK20a interactions with IL-1R1was approximately 2000 times greater than that with IL-10Ra, and the calculated dissociation constant of NK20a interactions with IL-1R1 was to be 5000 times greater than that with IL-10Ra interactions (Table 2). […]
# Fig. 3 BLI kinetic assays of the designed peptides binding to the receptor IL-10Ra. […] Dissociation was recorded at 120 s after the binding started (black dotted line).
sequence,measurement,setting,value
NMLRNLRNAFSRVKTFFQMK [NK20a],kon,[1],8140 M⁻¹ s⁻¹
same,kon,IL-1R1,18300 M⁻¹ s⁻¹
